Source: patent publication US8012944B2, “Method for treating cancer using IAP antisense oligomer and chemotherapeutic agent” (Pharmascience Inc., priority 2003, dated 2011)

What was measured:
[1] = test system: pro-caspase-3, PARP; assay: Pro-caspase-3 and PARP protein in H460 cells (western blot); format: cell-based, human; conditions: 1.2 μM
Procedure: One day prior to transfection, H460 cells were plated in 6- or 96-well tissue culture plates. Phosphorothioate antisense oligonucleotides were delivered into cells with Lipofectamine 2000 (Life Technologies) in the form of liposome-oligonucleotide complexes. Following a 4.5 or 6 h transfection, the transfection medium was replaced with RPMI medium containing 10% FBS, and the cells incubated for another 24 or 48 h.
The cells or tumor tissue samples were lysed with ice-cold lysis buffer (50 mM Tris, 150 mM NaCl, 2.5 mM EDTA, 0.1% SDS, 0.5% sodium deoxycholate, 1% NP-40, 0.02% sodium azide) containing protease inhibitors (Complete-Mini protease inhibitor tablets; Boehringer Mannheim GmBH, Mannheim, Germany). After incubation for 30 min on ice, samples were centrifuged at 10,000 rpm for 15 min, and stored at −20° C. Protein content in the lysed extracts was determined using a detergent-compatible Bio-Rad assay (Bio-Rad Labs, Hercules, Calif.). Equal amounts of protein (40 μg/lane) were separated on 12% SDS-polyacrylamide gels or 4-15% gradient SDS-polyacrylamide pre-made gels (Bio-Rad) and transferred to nitrocellulose membranes. Primary antibodies against XIAP, Bcl-2 (DAKO, Glostrup, Denmark), Bax (Sigma, St. Louis, Mo.), β-actin (Sigma), caspase-3 (BD PharMingen, San Diego, Calif.), and PARP (BD PharMingen) were used. The secondary antibody was the appropriate horseradish-conjugated anti-mouse or anti-rabbit IgG (Promega, Madison, Wis.). Proteins were detected by enhanced chemiluminescence (ECL; Amersham Pharmacia Biotech, Buckinghamshire, England) and visualized after exposure to Kodak autoradiography film. Scanning densitometry (Molecular Dynamics, Sunnyvale, Calif.) was performed to quantify band intensities by volume/area integration. The amount of XIAP, caspase-3, Bcl-2 and Bax in cells was normalized to their respective lane β-actin levels, upon stripping and reprobing.

[2] = test system: Bcl-2 and Bax; assay: Bcl-2:Bax ratio in H460 cells (western blot); format: cell-based, human; conditions: 1.2 μM
Procedure: FIGS. 11A and 11B are schematic illustrations showing XIAP oligonucleotide-mediated effects on caspase activation. The effect of XIAP oligonucleotides F3, G4, or C5, or their respective RP and SC ODN controls at 1.2 μM on the expression of pro-caspase-3, PARP (both full length (116 kDa) and processed (85 kDa)) (FIG. 10A) and Bcl-2 and Bax protein levels (FIG. 10B) in transfected H460 cells compared to control is shown. Proteins expression was analyzed by western blotting. Bcl-2 and Bax protein levels were normalized to cellular actin levels and quantified by densitometry. […]
The cells or tumor tissue samples were lysed with ice-cold lysis buffer (50 mM Tris, 150 mM NaCl, 2.5 mM EDTA, 0.1% SDS, 0.5% sodium deoxycholate, 1% NP-40, 0.02% sodium azide) containing protease inhibitors (Complete-Mini protease inhibitor tablets; Boehringer Mannheim GmBH, Mannheim, Germany). […] Protein content in the lysed extracts was determined using a detergent-compatible Bio-Rad assay (Bio-Rad Labs, Hercules, Calif.). […] Proteins were detected by enhanced chemiluminescence (ECL; Amersham Pharmacia Biotech, Buckinghamshire, England) and visualized after exposure to Kodak autoradiography film. Scanning densitometry (Molecular Dynamics, Sunnyvale, Calif.) was performed to quantify band intensities by volume/area integration. […]

[3] = test system: subcutaneous H460 human non-small-cell lung tumor xenografts; assay: Systemic (i.p.) oligonucleotides with or without vinorelbine in H460 xenografts; format: in vivo, SCID-RAG2 mice; conditions: for mean tumor size: day 24, control 0.75
Procedure: Initial systemic PS-oligonucleotide studies were designed without any chemotherapeutic agents. SCID-RAG2 mice were inoculated with H460 human lung carcinoma cells (s.c. shoulder injection of 10^6 cells) and treatments with G4 and F3 AS PS-oligonucleotides, as well as a scrambled control, were initiated three days after tumor inoculation. Nucleobase oligomer injections were administered i.p. at 12.5 mg/kg three times a week for three weeks. At the end of the treatment period, mean tumor sizes in the groups treated with either G4 or F3 AS oligonucleotides were ˜50% smaller than in the group treated with a scrambled control oligonucleotides (FIG. 15). The same treatment protocol was tested on female SCID-RAG2 mice inoculated orthotopically with MDA-MB-435/LCC6 human breast carcinoma cells. Two weeks after the last treatment (day 35) tumor volumes of mice treated with F3, C5 or G4 AS oligonucleotides were 70%, 60%, and 45%, respectively, smaller than vehicle controls (FIG. 16).
We conducted additional examination of the antitumor effects of G4 AS oligonucleotides in SCID-RAG2 mice bearing xenografts of H460 human non-small-cell lung tumors implanted subcutaneously. Saline-treated control tumors grew reproducibly to a size of 0.75 cm^3 within approximately 24 days (FIG. 17). Oligonucleotide treatments were initiated three days after tumor cell inoculation. G4 AS oligonucleotides (5 to 15 mg/kg) were administered using a treatment schedule of i.p. injections given once a day on days 3-7, 10-14, and 17-21. The treatment with 5 or 15 mg/kg G4 AS oligonucleotides greatly delayed tumor growth: on day 24 mean tumor sizes were 0.75, 0.45 and 0.29 cm^3 in control, 5 and 15 mg/kg treated groups, respectively (FIG. 18A). There was a dose-dependent inhibition of tumor growth. […] A dose of 15 mg/kg was selected for the future combination treatment regimens with anticancer drugs.
The human non-small cell lung cancer cell line (large cell type) NCI-H460 (H460) was obtained from ATCC and maintained in RPMI 1640 supplemented with 10% FCS at 37° C. in a humidified atmosphere containing 5% CO2. Cells were used in exponential growth phase, up to a maximum of 25 in vitro passages. Male SCID-RAG2 mice (7-9 weeks old, 23-26 g) were obtained from British Columbia Cancer Agency Joint Animal Facility breeding colony and kept in aseptic environments. A tumor model of NCI-H460 cells in SCID-RAG2 mice was established by subcutaneous implantation of 1×10^6 NCI-H460 cells on the back of mice.
Efficacy experiments were conducted in male RAG2 immunodeficient mice bearing NCI-H460 tumours or female RAG2 mice bearing LCC6 tumors. Treatments were commenced on day 3 after tumor inoculation. Saline (controls), G4 AS oligonucleotides (5 or 15 mg/kg), or G4 SC oligonucleotides (5 or 15 mg/kg) were administered i.p. daily for five doses a week over a three week regimen. Vinorelbine (VNB, 5 or 10 mg/kg) was administered i.v. via the tail vein, either alone or in combination with oligonucleotides, at day 3, 7, 11 and 17 after tumor inoculation. When oligonucleotides were administered in combination with VNB, the drug treatment was performed four hours after ODN treatment.
Mice were observed daily. Body weight measurements and signs of stress (e.g., lethargy, ruffled coat, ataxia) were used to detect possible toxicities. Animals with ulcerated tumor, or tumor volumes of 1 cm^3 or greater were killed. Digital caliper measurements of tumors were converted into mean tumor size (cm^3) using the formula: ½[length (cm)]×[width (cm)]^2. An average tumor size per mouse was used to calculate the group mean tumor size±SE (n=6 mice) from at least two independent experiments per group.

GCTGAGTCTCCATATTGCC [G4 AS] (chemistry not given here)
reduction of pro-caspase-3 protein levels compared to untreated control [1]: 60% | ratio of Bcl-2:Bax [2]: unchanged | tumor size as % of control mean tumor size ([3]; 15 mg/kg i.p.): 39% | mean tumor size smaller than scrambled control group ([3]; PS-oligonucleotides 12.5 mg/kg i.p. three times a week for three weeks, end of treatment): ~50% | mean tumor size ([3]; 5 mg/kg i.p.): 0.45 cm^3 | mean tumor size ([3]; 15 mg/kg i.p.): 0.29 cm^3 | antitumor efficacy on H460 xenografts (in words) ([3]; systemic, oligonucleotide 15 mg/kg i.p., VNB 5 or 10 mg/kg i.v.): significant sequence-specific growth inhibitory effects
